Results published in ChEMBL document CHEMBL5715954, “Silencing c-Myc translation as a therapeutic strategy through targeting PI3Kδ and CK1ε in hematological malignancies” (Blood, 2017).

Columns and labels:
Set-up in all cases: scale not given: the % may be the effect or the level left
[1] = target: Bone morphogenetic protein receptor type-1A (Homo sapiens) (UniProt P36894); assay: Inhibition of human ALK3 assessed as enzyme activity at 1 uM using casein as substrate preincubated for 20 mins followed by [gamma-33P]-ATP addition and measured after 120 mins by radiometric Hot-SpotSM Kinase assay relative to control
Sequence of Bone morphogenetic protein receptor type-1A (Homo sapiens) (P36894 whole entry): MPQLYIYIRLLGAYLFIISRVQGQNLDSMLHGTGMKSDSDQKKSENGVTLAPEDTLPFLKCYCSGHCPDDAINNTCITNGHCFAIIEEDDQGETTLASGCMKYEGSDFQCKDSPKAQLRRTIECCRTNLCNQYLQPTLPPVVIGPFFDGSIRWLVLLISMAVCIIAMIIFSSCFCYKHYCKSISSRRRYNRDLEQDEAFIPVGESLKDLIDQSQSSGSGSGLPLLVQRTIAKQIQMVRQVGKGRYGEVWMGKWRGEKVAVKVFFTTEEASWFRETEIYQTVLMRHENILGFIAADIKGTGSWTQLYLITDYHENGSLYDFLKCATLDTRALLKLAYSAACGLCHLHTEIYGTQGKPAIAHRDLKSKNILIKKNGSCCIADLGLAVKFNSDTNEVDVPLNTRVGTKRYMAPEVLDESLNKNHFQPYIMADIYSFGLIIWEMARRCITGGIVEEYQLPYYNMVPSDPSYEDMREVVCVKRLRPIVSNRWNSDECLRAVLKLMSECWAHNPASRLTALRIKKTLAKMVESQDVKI

[2] = target: Dual specificity protein kinase CLK1 (Homo sapiens) (UniProt P49759); assay: Inhibition of human CLK1 assessed as enzyme activity at 1 uM using myelin basic protein as substrate preincubated for 20 mins followed by [gamma-33P]-ATP addition and measured after 120 mins by radiometric Hot-SpotSM Kinase assay relative to control
Sequence of Dual specificity protein kinase CLK1 (Homo sapiens) (P49759 whole entry, looked up): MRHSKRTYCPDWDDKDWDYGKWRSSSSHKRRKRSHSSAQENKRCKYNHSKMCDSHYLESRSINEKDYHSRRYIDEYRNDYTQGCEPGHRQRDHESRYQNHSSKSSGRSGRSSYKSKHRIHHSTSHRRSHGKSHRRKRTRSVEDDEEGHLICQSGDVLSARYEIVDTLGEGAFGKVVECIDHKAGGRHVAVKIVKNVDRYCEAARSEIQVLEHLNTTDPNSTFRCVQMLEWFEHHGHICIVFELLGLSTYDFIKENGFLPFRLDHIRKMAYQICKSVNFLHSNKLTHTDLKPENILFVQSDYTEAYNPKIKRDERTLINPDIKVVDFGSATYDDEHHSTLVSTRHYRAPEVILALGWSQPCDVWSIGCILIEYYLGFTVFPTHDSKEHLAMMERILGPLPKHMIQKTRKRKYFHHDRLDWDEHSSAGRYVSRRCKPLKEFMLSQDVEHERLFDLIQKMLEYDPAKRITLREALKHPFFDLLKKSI

[3] = target: T1, Ephrin type-A receptor 3 (Homo sapiens) (UniProt P29320); assay: Inhibition of human EPHA3 assessed as enzyme activity at 1 uM using poly[Glu:Tyr] (4:1) as substrate preincubated for 20 mins followed by [gamma-33P]-ATP addition and measured after 120 mins by radiometric Hot-SpotSM Kinase assay relative to control
T1 sequence (whole entry): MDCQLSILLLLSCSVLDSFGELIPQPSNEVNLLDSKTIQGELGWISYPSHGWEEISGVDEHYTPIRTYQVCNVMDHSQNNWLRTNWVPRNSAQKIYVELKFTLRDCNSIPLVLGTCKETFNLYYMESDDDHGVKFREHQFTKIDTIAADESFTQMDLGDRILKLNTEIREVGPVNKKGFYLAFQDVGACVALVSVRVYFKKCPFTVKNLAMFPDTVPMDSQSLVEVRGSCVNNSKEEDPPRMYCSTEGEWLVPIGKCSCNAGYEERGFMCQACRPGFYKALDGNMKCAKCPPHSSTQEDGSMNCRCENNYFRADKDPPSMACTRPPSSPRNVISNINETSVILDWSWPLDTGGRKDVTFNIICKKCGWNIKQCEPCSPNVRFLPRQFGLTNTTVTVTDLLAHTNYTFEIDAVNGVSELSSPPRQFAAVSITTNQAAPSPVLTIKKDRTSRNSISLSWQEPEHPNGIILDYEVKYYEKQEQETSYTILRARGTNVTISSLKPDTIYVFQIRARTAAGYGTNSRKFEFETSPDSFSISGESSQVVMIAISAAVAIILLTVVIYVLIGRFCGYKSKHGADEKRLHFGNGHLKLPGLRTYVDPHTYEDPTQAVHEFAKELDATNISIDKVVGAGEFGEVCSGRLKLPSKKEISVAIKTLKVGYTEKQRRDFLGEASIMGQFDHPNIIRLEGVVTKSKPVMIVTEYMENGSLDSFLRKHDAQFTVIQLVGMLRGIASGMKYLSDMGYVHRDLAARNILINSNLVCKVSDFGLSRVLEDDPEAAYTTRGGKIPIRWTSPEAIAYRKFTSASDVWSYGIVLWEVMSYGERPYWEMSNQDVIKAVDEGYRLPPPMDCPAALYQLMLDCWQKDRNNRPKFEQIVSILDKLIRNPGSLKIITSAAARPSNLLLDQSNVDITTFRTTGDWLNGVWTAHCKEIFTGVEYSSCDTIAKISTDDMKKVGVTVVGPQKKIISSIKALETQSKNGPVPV

[4] = target: Receptor tyrosine-protein kinase erbB-4 (Homo sapiens) (UniProt Q15303); assay: Inhibition of human ERBB4 assessed as enzyme activity at 1 uM using poly[Glu:Tyr] (4:1) as substrate preincubated for 20 mins followed by [gamma-33P]-ATP addition and measured after 120 mins by radiometric Hot-SpotSM Kinase assay relative to control
Sequence of Receptor tyrosine-protein kinase erbB-4 (Homo sapiens) (Q15303 whole entry): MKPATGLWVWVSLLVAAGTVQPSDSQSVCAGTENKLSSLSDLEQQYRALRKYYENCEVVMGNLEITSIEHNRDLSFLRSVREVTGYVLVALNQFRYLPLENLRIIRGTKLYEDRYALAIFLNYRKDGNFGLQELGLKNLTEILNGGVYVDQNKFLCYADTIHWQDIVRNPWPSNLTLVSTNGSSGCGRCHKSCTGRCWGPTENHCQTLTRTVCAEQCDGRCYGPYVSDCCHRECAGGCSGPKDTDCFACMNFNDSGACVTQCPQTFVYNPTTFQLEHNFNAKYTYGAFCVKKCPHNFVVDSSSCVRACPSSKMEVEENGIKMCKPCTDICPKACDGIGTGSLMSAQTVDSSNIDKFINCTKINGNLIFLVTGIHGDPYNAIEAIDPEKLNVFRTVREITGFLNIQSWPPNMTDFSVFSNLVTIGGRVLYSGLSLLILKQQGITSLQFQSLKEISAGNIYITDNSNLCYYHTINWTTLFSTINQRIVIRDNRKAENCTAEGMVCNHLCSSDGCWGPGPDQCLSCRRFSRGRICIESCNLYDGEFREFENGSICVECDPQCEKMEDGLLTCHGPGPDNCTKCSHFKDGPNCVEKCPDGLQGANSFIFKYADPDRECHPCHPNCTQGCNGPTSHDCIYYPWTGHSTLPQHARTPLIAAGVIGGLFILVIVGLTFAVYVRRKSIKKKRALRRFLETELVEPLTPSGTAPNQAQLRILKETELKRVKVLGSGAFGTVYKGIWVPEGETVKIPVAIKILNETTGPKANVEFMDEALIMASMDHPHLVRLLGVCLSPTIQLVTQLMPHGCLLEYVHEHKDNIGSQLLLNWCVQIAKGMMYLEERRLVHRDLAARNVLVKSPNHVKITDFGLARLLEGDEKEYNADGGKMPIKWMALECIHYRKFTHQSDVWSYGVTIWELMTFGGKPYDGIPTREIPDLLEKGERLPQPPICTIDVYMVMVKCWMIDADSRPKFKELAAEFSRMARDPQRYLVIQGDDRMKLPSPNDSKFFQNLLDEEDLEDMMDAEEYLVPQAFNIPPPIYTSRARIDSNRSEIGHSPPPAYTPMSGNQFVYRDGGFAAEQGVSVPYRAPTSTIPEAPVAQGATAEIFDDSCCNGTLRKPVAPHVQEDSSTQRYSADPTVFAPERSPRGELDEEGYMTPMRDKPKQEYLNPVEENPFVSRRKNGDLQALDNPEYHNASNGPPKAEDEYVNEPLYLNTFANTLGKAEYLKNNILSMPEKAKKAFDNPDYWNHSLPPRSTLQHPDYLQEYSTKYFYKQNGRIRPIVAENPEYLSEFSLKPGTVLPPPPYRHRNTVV

[5] = target: Mitogen-activated protein kinase 1 (Homo sapiens) (UniProt P28482); assay: Inhibition of human ERK2 assessed as enzyme activity at 1 uM using myelin basic protein as substrate preincubated for 20 mins followed by [gamma-33P]-ATP addition and measured after 120 mins by radiometric Hot-SpotSM Kinase assay relative to control
Sequence of Mitogen-activated protein kinase 1 (Homo sapiens) (P28482 whole entry): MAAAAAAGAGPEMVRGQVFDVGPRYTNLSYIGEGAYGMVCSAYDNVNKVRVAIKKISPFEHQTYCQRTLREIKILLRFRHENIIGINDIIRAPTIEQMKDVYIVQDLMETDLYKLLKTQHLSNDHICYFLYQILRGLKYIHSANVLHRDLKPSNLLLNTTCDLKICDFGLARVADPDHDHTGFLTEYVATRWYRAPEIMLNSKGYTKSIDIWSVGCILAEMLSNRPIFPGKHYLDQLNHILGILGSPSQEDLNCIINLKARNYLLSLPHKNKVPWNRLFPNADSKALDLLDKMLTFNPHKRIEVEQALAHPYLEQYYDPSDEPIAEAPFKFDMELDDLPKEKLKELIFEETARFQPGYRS

[6] = target: T2, Dual specificity mitogen-activated protein kinase kinase 3 (Homo sapiens) (UniProt P46734); assay: Inhibition of human MEK3 assessed as enzyme activity at 1 uM using p38a (K53A) as substrate preincubated for 20 mins followed by [gamma-33P]-ATP addition and measured after 120 mins by radiometric Hot-SpotSM Kinase assay relative to control
T2 sequence (whole entry): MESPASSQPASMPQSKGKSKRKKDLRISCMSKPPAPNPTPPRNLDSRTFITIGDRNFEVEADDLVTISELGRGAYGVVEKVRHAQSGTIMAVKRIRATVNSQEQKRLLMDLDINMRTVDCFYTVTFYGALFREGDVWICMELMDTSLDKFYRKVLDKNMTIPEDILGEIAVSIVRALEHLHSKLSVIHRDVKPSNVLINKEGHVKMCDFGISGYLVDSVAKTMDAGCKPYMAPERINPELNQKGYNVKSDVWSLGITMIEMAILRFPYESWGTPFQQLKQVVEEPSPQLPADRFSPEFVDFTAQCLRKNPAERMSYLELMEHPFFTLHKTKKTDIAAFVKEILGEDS

[7] = target: Receptor-interacting serine/threonine-protein kinase 2 (Homo sapiens) (UniProt O43353); assay: Inhibition of human RIPK2 assessed as enzyme activity at 1 uM using myelin basic protein as substrate preincubated for 20 mins followed by [gamma-33P]-ATP addition and measured after 120 mins by radiometric Hot-SpotSM Kinase assay relative to control
Sequence of Receptor-interacting serine/threonine-protein kinase 2 (Homo sapiens) (O43353 whole entry): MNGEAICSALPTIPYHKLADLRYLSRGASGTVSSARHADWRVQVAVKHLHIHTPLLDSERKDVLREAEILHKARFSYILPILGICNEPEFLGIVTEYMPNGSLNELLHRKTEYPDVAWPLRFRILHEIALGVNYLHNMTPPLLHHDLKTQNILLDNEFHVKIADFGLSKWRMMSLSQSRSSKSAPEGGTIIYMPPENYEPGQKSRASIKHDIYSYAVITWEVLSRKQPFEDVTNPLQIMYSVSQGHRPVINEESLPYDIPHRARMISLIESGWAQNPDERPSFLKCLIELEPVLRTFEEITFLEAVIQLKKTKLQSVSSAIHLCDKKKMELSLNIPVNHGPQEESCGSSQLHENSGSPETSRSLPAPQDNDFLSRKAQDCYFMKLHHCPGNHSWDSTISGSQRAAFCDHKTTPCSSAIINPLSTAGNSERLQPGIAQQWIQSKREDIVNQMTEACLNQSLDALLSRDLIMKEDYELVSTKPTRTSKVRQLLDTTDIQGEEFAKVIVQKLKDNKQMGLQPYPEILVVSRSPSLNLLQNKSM

SMILES | Activity [1] [%] | Activity [2] [%] | Activity [3] [%] | Activity [4] [%] | Activity [5] [%] | Activity [6] [%] | Activity [7] [%]
CC[C@H](Nc1ncnc2[nH]cnc12)c1nc2cccc(F)c2c(=O)n1-c1ccccc1 | 105 | 97.3 | 93.4 | 101 | 93.6 | 108 | 96.5
C[C@H](Nc1ncnc2nc[nH]c12)c1cc2cccc(Cl)c2c(=O)n1-c1ccccc1 | 101 | 106 | 93.9 | 97.4 | 97.2 | 108 | 92.2
CC(C)Oc1ccc(-c2nn([C@@H](C)c3oc4ccc(F)cc4c(=O)c3-c3cccc(F)c3)c3ncnc(N)c23)cc1F [UMBRALISIB] | 89.5 | 103 | 92.9 | 101 | 94.2 | 105 | 94.2
